Assay results taken from PubChem BioAssay AID602435 (Southern Research Specialized Biocontainment Screening …, 2012).
“And” between values parts separate entries of the source, which are not always exact repeats. Identical values can stand only once. Results filed as inconclusive are left out. The source made the active and inactive calls. How the calls were made is not given here.

Tests used:
[1] = system: Mycobacterium tuberculosis H37Rv growth, 7H9 medium; test: M. tuberculosis growth inhibition, dose response, 7H9 medium, purified and synthesized samples, set 9 (AID 602435); conditions: for IC50: measured here: IC50 growth inhibition replicates
[2] = as above; conditions: Mycobacterium tuberculosis H37Rv growth, 7H9 medium

Row | SMILES | IC90 [1] | IC50 [1] | growth inhibition ([2]; at 100 µM (top of the series)) | growth inhibition ([2]; at 50 µM (top of the series))
1 | O=C(CSc1nc2c(c(=O)[nH]1)CCC2)NC1CCCCC1 | 3.92 µM | 2.97 µM | – | –
2 | Cc1cccc(N2CCN(C(=O)c3ccc(CNc4c(N5CCC(C)CC5)c(=O)c4=O)cc3)CC2)c1C | – | 42.1 µM | – | –
3 | CC1CC(C)CN(C(=O)C2CCC(CNc3c(N4CCCCC4)c(=O)c3=O)CC2)C1 (stereo not given) | – | 13.7 µM and 29 µM | – | –
4 | O=C(c1ccc(CNc2c(N3CCCC3)c(=O)c2=O)cc1)N1CCN(c2ccccc2)CC1 | – | 62.3 µM | – | –
5 | CC1CC(C)CN(C(=O)c2ccc(CNc3c(N4CCCC4)c(=O)c3=O)cc2)C1 (stereo not given) | – | 8.84 µM | – | –
6 | CC(C)OC(=O)CSc1ncnc2c1cnn2-c1ccccc1 | – | 28.7 µM | – | –
7 | COc1ccc(N2CCN(C(=O)c3ccc(CNc4c(N5CCOCC5)c(=O)c4=O)cc3)CC2)cc1 | – | 6.35 µM and 6.09 µM | – | –
8 | O=C(CSc1nc2c(c(=O)[nH]1)CCCC2)NC1CCCCC1 | 3.12 µM | 1.97 µM | – | –
9 | O=C(c1ccc(CNc2c(N3CCCC3)c(=O)c2=O)cc1)N1CCc2ccccc2C1 | – | 5.06 µM | – | –
10 | CC(=O)c1ccc(NC(=O)c2ccc(CNc3c(N4CCOCC4)c(=O)c3=O)cc2)cc1 | – | 50 µM | – | –
11 | COCCNC(=O)CSc1nc2ccccc2c(=O)[nH]1 | – | – | -5.73% (inactive) | –
12 | O=C(c1ccc(CNc2c(N3CCOCC3)c(=O)c2=O)cc1)N1CC=C(c2ccccc2)CC1 | 6.81 µM | 0.957 µM | – | –
13 | O=C(CSc1nc2c(c(=O)[nH]1)CN(Cc1ccccc1)CC2)NC1CCCCC1 | – | – | -0.3% (inactive) | –
14 | COc1ccc(N2CCN(C(=O)c3ccc(CNc4c(N5CCCC(C)C5)c(=O)c4=O)cc3)CC2)cc1 (stereo not given) | 46.9 µM | 28.1 µM | – | –
15 | O=C(NCCc1ccc(Cl)cc1)C1CCC(CNc2c(N3CCCCC3)c(=O)c2=O)CC1 (stereo not given) | – | 37.1 µM | – | –
16 | O=C(CSc1nc2ccccc2c(=O)[nH]1)NC1CCCCC1 | < 0.29 µM | 0.195 µM | – | –
17 | O=C(c1ccc(CNc2c(N3CCOCC3)c(=O)c2=O)cc1)N1CCN(c2ccccc2)CC1 | – | 3.45 µM | – | –
18 | COC(=O)CSc1ncnc2c1cnn2-c1ccc(C)cc1C | 3.65 µM | 2.57 µM | – | –
19 | CC1CCN(C(=O)c2ccc(CNc3c(N4CCCC4)c(=O)c3=O)cc2)CC1 | – | 8.48 µM | – | –
20 | COC(=O)C(Cc1ccccc1)NC(=O)CSc1nc2ccccc2c(=O)[nH]1 (stereo not given) | – | – | 4.82% (inactive) | –
21 | COc1ccc(N2CCN(C(=O)c3ccc(CNC(=O)NCc4ccc(Cl)cc4)cc3)CC2)cc1 | – | – | 3.4% (inactive) | –

Row | SMILES | IC90 [1] | IC50 [1] | growth inhibition ([2]; at 100 µM (top of the series)) | growth inhibition ([2]; at 50 µM (top of the series))
22 | O=C(C1CCC(CNc2c(N3CCCCC3)c(=O)c2=O)CC1)N1CCCCC1 (stereo not given) | – | 25.2 µM | – | –
23 | CCOC(=O)CSc1ncnc2c1cnn2-c1ccccc1 | 39.5 µM | 15.3 µM | – | –
24 | O=C(NCc1ccc(C(=O)N2CCN(c3ccccc3)CC2)cc1)NC1CCCCC1 | – | – | 2.95% (inactive) | –
25 | O=C(NCCc1ccc(Cl)cc1)c1ccc(CNc2c(N3CCOCC3)c(=O)c2=O)cc1 | 19.1 µM | 10.5 µM and 12.5 µM | – | –
26 | CC(C)CCNC(=O)CSc1nc2c(c(=O)[nH]1)CCCCC2 | – | 99.6 µM | – | –
27 | O=C(c1ccc(CNc2c(N3CCCC3)c(=O)c2=O)cc1)N1CC=C(c2ccccc2)CC1 | – | 3.22 µM and 2.96 µM | – | –
28 | CCOC(=O)N1CCC(Nc2c(Nc3cccc(CC)c3)c(=O)c2=O)CC1 | – | – | – | 3.52% (inactive)
29 | O=C(NCc1ccc(C(=O)N2CCC(c3ccccc3)CC2)cc1)Nc1ccc(Cl)cc1 | 94 µM | 74.4 µM | – | –
30 | CC(C)CCNC(=O)CSc1nc2ccccc2c(=O)[nH]1 | 0.78 µM | 0.696 µM | – | –
31 | Cc1cccc(N2CCN(C(=O)c3ccc(CNc4c(N5CCC(C)CC5)c(=O)c4=O)cc3)CC2C)c1 (stereo not given) | 41.3 µM | 26.9 µM | – | –
32 | CCOC(=O)CSc1ncnc2c1cnn2-c1ccc(C)cc1C | 3.65 µM | 2.42 µM | – | –
33 | O=C(NCc1ccc(C(=O)N2CCC(c3ccccc3)CC2)cc1)NC1CCCCC1 | 88.7 µM | 69.1 µM | – | –
34 | O=C(c1ccc(CNc2c(N3CCCC3)c(=O)c2=O)cc1)N1CCC(c2ccccc2)CC1 | – | 79.7 µM | – | –
35 | CC1CCCN(c2c(NCc3ccc(C(=O)N4CC=C(c5ccccc5)CC4)cc3)c(=O)c2=O)C1 (stereo not given) | 11.8 µM | 7.54 µM | – | –
36 | O=C(CSc1nc2ccccc2c(=O)[nH]1)NC1CCOCC1 | 26 µM | 23.1 µM | – | –
37 | CC(C)CCNC(=O)CSc1nc2c(c(=O)[nH]1)CCCC2 | 6.12 µM | 4.43 µM | – | –
38 | CC1CCCN(C(=O)c2ccc(CNc3c(N4CCCCC4)c(=O)c3=O)cc2)C1 (stereo not given) | – | 3.7 µM | – | –
39 | O=C(c1ccc(CNc2c(N3CCOCC3)c(=O)c2=O)cc1)N1CCC(c2ccccc2)CC1 | 16 µM | 3.43 µM | – | –
40 | CC1CCCN(C(=O)C2CCC(CNc3c(N4CCCCC4)c(=O)c3=O)CC2)C1 (stereo not given) | – | 26.2 µM | – | –
41 | CCC(C)NC(=O)CSc1nc2ccccc2c(=O)[nH]1 (stereo not given) | 16.9 µM | 15.7 µM | – | –
42 | CCOc1ccc(NC(=O)c2ccc(CNc3c(N4CCCC4)c(=O)c3=O)cc2)cc1 | – | – | -10% (inactive) | –
